Results reported in publication PMC10504751, “Chalcone/1,3,4-Oxadiazole/Benzimidazole hybrids as novel anti-proliferative agents inducing apoptosis and inhibiting EGFR & BRAFV^600E” (BMC Chemistry, 2023).

What was measured:
Experiment in all cases: NCI one-dose SRB anti-proliferative screen
HCT-116 = assay type: cell-based, human; conditions: Homo sapiens; HCT-116 (Colon Cancer), NCI one dose 10 µM; read-out: Cell growth inhibition %
How it was run: (§1)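 SRB-based colorimetric growth readout; compounds dosed once at 10 µM.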

K-562 = assay type: cell-based, human; conditions: Homo sapiens, K562; K-562 (Leukemia), NCI one dose 10 µM; read-out: Cell growth inhibition %
How it was run: as §1

MOLT-4 = assay type: cell-based, human; conditions: Homo sapiens; MOLT-4 (Leukemia), NCI one dose 10 µM; read-out: Cell growth inhibition %
How it was run: as §1

RXF 393 = assay type: cell-based, human; conditions: Homo sapiens; RXF 393 (Renal Cancer), NCI one dose 10 µM; read-out: Cell growth inhibition %
How it was run: as §1

T-47D = assay type: cell-based, human; conditions: Homo sapiens, T47D; T-47D (Breast Cancer), NCI one dose 10 µM; read-out: Cell growth inhibition %
How it was run: as §1

A549/ATCC = assay type: cell-based; conditions: Homo sapiens; A549/ATCC (Non-Small Cell Lung Cancer), NCI one dose 10 µM; read-out: Cell growth inhibition %
How it was run: as §1

BT-549 = assay type: cell-based; conditions: Homo sapiens; BT-549 (Breast Cancer), NCI one dose 10 µM; read-out: Cell growth inhibition %
How it was run: as §1

CCRF-CEM = assay type: cell-based; conditions: Homo sapiens; CCRF-CEM (Leukemia), NCI one dose 10 µM; read-out: Cell growth inhibition %
How it was run: as §1

COLO 205 = assay type: cell-based; conditions: Homo sapiens; COLO 205 (Colon Cancer), NCI one dose 10 µM; read-out: Cell growth inhibition %
How it was run: as §1

EKVX = assay type: cell-based; conditions: Homo sapiens; EKVX (Non-Small Cell Lung Cancer), NCI one dose 10 µM; read-out: Cell growth inhibition %
How it was run: as §1

HCT-15 = assay type: cell-based; conditions: Homo sapiens; HCT-15 (Colon Cancer), NCI one dose 10 µM; read-out: Cell growth inhibition %
How it was run: as §1

HOP-62 = assay type: cell-based; conditions: Homo sapiens; HOP-62 (Non-Small Cell Lung Cancer), NCI one dose 10 µM; read-out: Cell growth inhibition %
How it was run: as §1

HS 578T = assay type: cell-based; conditions: Homo sapiens; HS 578T (Breast Cancer), NCI one dose 10 µM; read-out: Cell growth inhibition %
How it was run: as §1

IGROV1 = assay type: cell-based; conditions: Homo sapiens, IGROV-1; IGROV1 (Ovarian Cancer), NCI one dose 10 µM; read-out: Cell growth inhibition %
How it was run: as §1

M14 = assay type: cell-based; conditions: Homo sapiens; M14 (Melanoma), NCI one dose 10 µM; read-out: Cell growth inhibition %
How it was run: as §1

MALME-3M = assay type: cell-based; conditions: Homo sapiens; MALME-3M (Melanoma), NCI one dose 10 µM; read-out: Cell growth inhibition %
How it was run: as §1

MCF7 = assay type: cell-based; conditions: Homo sapiens; MCF7 (Breast Cancer), NCI one dose 10 µM; read-out: Cell growth inhibition %
How it was run: as §1

MDA-MB-435 = assay type: cell-based; conditions: Homo sapiens; MDA-MB-435 (Melanoma), NCI one dose 10 µM; read-out: Cell growth inhibition %
How it was run: as §1

NCI-H522 = assay type: cell-based; conditions: Homo sapiens; NCI-H522 (Non-Small Cell Lung Cancer), NCI one dose 10 µM; read-out: Cell growth inhibition %
How it was run: as §1

OVCAR-5 = assay type: cell-based; conditions: Homo sapiens; OVCAR-5 (Ovarian Cancer), NCI one dose 10 µM; read-out: Cell growth inhibition %
How it was run: as §1

OVCAR-8 = assay type: cell-based; conditions: Homo sapiens; OVCAR-8 (Ovarian Cancer), NCI one dose 10 µM; read-out: Cell growth inhibition %
How it was run: as §1

PC-3 = assay type: cell-based; conditions: Homo sapiens; PC-3 (Prostate Cancer), NCI one dose 10 µM; read-out: Cell growth inhibition %
How it was run: as §1

RPMI-8226 = assay type: cell-based; conditions: Homo sapiens; RPMI-8226 (Leukemia), NCI one dose 10 µM; read-out: Cell growth inhibition %
How it was run: as §1

SK-MEL-28 = assay type: cell-based; conditions: Homo sapiens; SK-MEL-28 (Melanoma), NCI one dose 10 µM; read-out: Cell growth inhibition %
How it was run: as §1

SK-MEL-2 = assay type: cell-based; conditions: Homo sapiens; SK-MEL-2 (Melanoma), NCI one dose 10 µM; read-out: Cell growth inhibition %
How it was run: as §1

SK-OV-3 = assay type: cell-based; conditions: Homo sapiens; SK-OV-3 (Ovarian Cancer), NCI one dose 10 µM; read-out: Cell growth inhibition %
How it was run: as §1

SN12C = assay type: cell-based; conditions: Homo sapiens, SN 12C (Renal Cancer), NCI one dose 10 µM, read-out: Cell growth inhibition %
How it was run: as §1

SNB-75 = assay type: cell-based; conditions: Homo sapiens; SNB-75 (CNS Cancer), NCI one dose 10 µM; read-out: Cell growth inhibition %
How it was run: as §1

UACC-257 = assay type: cell-based; conditions: Homo sapiens; UACC-257 (Melanoma), NCI one dose 10 µM; read-out: Cell growth inhibition %
How it was run: as §1

UACC-62 = assay type: cell-based; conditions: Homo sapiens; UACC-62 (Melanoma), NCI one dose 10 µM; read-out: Cell growth inhibition %
How it was run: as §1

UO-31 = assay type: cell-based; conditions: Homo sapiens; UO-31 (Renal Cancer), NCI one dose 10 µM; read-out: Cell growth inhibition %
How it was run: as §1

O=C(CSc1nnc(-c2ccc3[nH]c(-c4ccc(Cl)cc4)nc3c2)o1)Nc1ccc(C(=O)/C=C/c2ccc(Cl)cc2)cc1 [Compound 7g, 2-{5-[2-(4-Chlorophenyl)-1 H-benzo[d]imidazol-5-yl]-1,3,4-oxadiazol-2-ylthio}-N-{4-[(E)-3-(4-chlorophenyl)acryloyl]phenyl}acetamide]
inhibition at 10 µM (HCT-116): 22.2%
inhibition at 10 µM (K-562): 18.6%
inhibition at 10 µM (MOLT-4): 22.2%
inhibition at 10 µM (RXF 393): 0%
inhibition at 10 µM (T-47D): 12.9%
inhibition at 10 µM (A549/ATCC): 4.52%
inhibition at 10 µM (BT-549): 0.37%
inhibition at 10 µM (CCRF-CEM): 13.6%
inhibition at 10 µM (COLO 205): 0%
inhibition at 10 µM (EKVX): 6.19%
inhibition at 10 µM (HCT-15): 10.2%
inhibition at 10 µM (HOP-62): 2.12%
inhibition at 10 µM (HS 578T): 11%
inhibition at 10 µM (IGROV1): 14.4%
inhibition at 10 µM (M14): 0%
inhibition at 10 µM (MALME-3M): 0%
inhibition at 10 µM (MCF7): 44.8%
inhibition at 10 µM (MDA-MB-435): 0.11%
inhibition at 10 µM (NCI-H522): 11.6%
inhibition at 10 µM (OVCAR-5): 0%
inhibition at 10 µM (OVCAR-8): 2.88%
inhibition at 10 µM (PC-3): 12.3%
inhibition at 10 µM (RPMI-8226): 95%
inhibition at 10 µM (SK-MEL-28): 0%
inhibition at 10 µM (SK-MEL-2): 0%
inhibition at 10 µM (SK-OV-3): 0%
inhibition at 10 µM (SN12C): 15.1%
inhibition at 10 µM (SNB-75): 9.09%
inhibition at 10 µM (UACC-257): 0%
inhibition at 10 µM (UACC-62): 16.8%
inhibition at 10 µM (UO-31): 24.7%
